{
  "source": "paper PMC5702336",
  "about": "“Critical Role of Hepatic Cyp450s in the Testis-Specific Toxicity of (5R)-5-Hydroxytriptolide in C57BL/6 Mice” (Frontiers in Pharmacology, 2017)",
  "key": {"mice": {"system": "mice", "set-up": "method as in Zhou et al., 2005", "settings": "p.o., ref Zhou et al., 2005; cited from earlier work"}, "testes gene expression": {"system": "testes gene expression", "test": "qPCR of AR-related, Sertoli cell and germ cell marker genes in testes", "format": "in vivo, mouse", "procedure": "For toxicity experiments, mice (n = 3/group) were treated with LLDT-8 (0.5 or 1.0 mg/kg) consecutively administered by gavage for 15 days. Controls received saline. Mice were killed on the 15th-day post-administration and blood, liver, kidney, spleen, testes, and epididymis were collected. About 500 μL blood samples were collected from the heart. The main lobe of the liver, kidney, spleen, and epididymis was fixed in 10% neutral buffered formalin for histological examination, and the left testicle was fixed in modified Davidson's buffer (30% of a 37–40% solution of formaldehyde, 15% ethanol, 5% glacial acetic acid, and 50% distilled H2O) for 16 h followed by 10% neutral buffered formalin for 24 h (Latendresse et al., [2002]). Tissue sections were stained with hematoxylin and eosin (H&E). Remaining tissues were stored at −80°C for RNA and protein extraction.\nTotal mouse testes RNA was isolated using a UNIQ-10 total RNA isolation kit (Sangon Biotech, Shanghai, China). One micro gram RNA per sample was reverse-transcribed into cDNA using a PrimeScript RT reagent kit (Cat. No. RR036A, Takara, Dalian, China). The purity and quality of RNA and cDNA were checked by A260/A280 ratio and agarose gel. The qPCR was executed in 20 μL volume containing 10 μL SYBR Premix Ex Taq (Cat. No. RR820A, Takara, Dalian, China), 8 μL of cDNA (80 ng cDNA), 1 μL forward primer (500 nM) and 1 μL reverse primer (500 nM). The sequences of primers for Androgen-binding protein (ABP) and cystatin 12 (Cst12) were referenced from PrimerBank. The sequences for other genes were described elsewhere [Deleted in azoospermia-like (Dazl), Heat shock protein a2 (Hspa2), Phosphoglycerate kinase-2 (Pgk2), Protamine 1 (Prm1), GATA binding protein 1 (Gata1) and Zbtb16 zinc finger and BTB domain containing 16 (Plzf) (Qi et al., [2016]); AR (Ma et al., [2013]); Reproductive homeobox 5 (Rhox5) (Kurek et al., [2015]); Fatty acid binding protein (FABP) (Vanschoonbeek et al., [2008]); Claudin 11 (Cldn11) (Sumigray et al., [2014]); β-actin (Wan et al., [2017])]. The qPCR process was performed using a Rotor Gene Q PCR system (QIAGEN, Shanghai, China). The qPCR amplification program consisted of polymerase activation at 98°C for the 30 s and 40 cycles of denaturation at 95°C for 5 s, annealing, and extension at 60°C for 40 s. The melting curve analysis was carried out for each reaction from 50 to 99°C. The CT values for the samples were normalized to the corresponding β-actin CT values."}, "GC-2spd cells": {"system": "GC-2spd cells", "test": "Pol II protein level in spermatocyte-like cells (western blot)", "format": "cell-based, mouse", "procedure": "Mouse GC-1spg (spermatogonia-like, ATCC number: CRL-2053), TM4 (Sertoli cell-like, ATCC number: CRL-1715), and GC-2spd (spermatocyte-like, ATCC number: CRL-2196) were purchased from ATCC (Manassas, VA). Cells were grown in a 5% CO2 atmosphere at 37°C. TM4 was cultured in DMEM supplemented with 5% horse serum, 2.5% fetal bovine serum and 1x antibiotic-antimyotic (Cat. NO. 15240062, Life technologies). GC-1spg and GC-2spd were cultured in DMEM supplemented with 10% fetal bovine serum (Cat. No. F2442, Sigma, USA) and 1x antibiotic-antimyotic (Cat.NO. 15240062, Life technologies).\nCells were washed twice with ice-cold PBS (137 mM NaCl, 2.7 mM KCl, 10 mM Na2HPO4, and 1.8 mM KH2PO4, pH 7.4) and lysed in SDS sample buffer. Cell lysates, containing 20 μg of protein, were separated with SDS-PAGE (8%) and transferred to polyvinylidene difluoride membranes. After blocking in 5% non-fat milk in tris-buffered saline containing 0.1% Tween-20 (pH = 7.6), membranes were incubated with the appropriate primary antibodies at 4°C overnight. The primary antibodies γ-H2AX (Cat. No: 2577, Lot. No: 11, CST, USA) and Pol II (Cat. No: 05-623, Lot. No: 2397109, Millipore, USA) diluted 1:1000 in 5% bovine serum albumin (BSA, Cat. No. B2064-50G, Sigma, USA). […]"}},
  "data": [
    {"molecule": "CC(C)[C@]12O[C@H]1[C@@H]1O[C@]13[C@]1(O[C@H]1C[C@@]1(O)C4=C(CC[C@]31C)C(=O)OC4)[C@@H]2O", "note": "[LLDT-8, (5R)-5-hydroxytriptolide]", "values": [
      {"measurement": "LD50", "setting": "mice", "value": 9.3, "unit": "mg/kg"},
      {"measurement": "expression of AR, Rhox5, Cldn11, Cst12, ABP and FABP in testes of WT mice", "setting": "testes gene expression; 0.5–1.0 mg/kg, 15 days", "value": "did not reduce"},
      {"measurement": "expression of Dazl and Prm1 in testes of WT mice", "setting": "testes gene expression; 15 days", "value": "marked decrease"},
      {"measurement": "expression of Hspa2 in testes of WT mice", "setting": "testes gene expression; 15 days", "value": "mild decrease"},
      {"measurement": "expression of Cldn11, Cst12 and FABP in testes of WT mice", "setting": "testes gene expression; particularly in 1.0 mg/kg group", "value": "increased"},
      {"measurement": "Pol II protein", "setting": "GC-2spd cells", "value": "dose- and time-dependently reduced"}
    ]}
  ]
}
